What was measured:
[1] = test system: cocklebur; experiment: Test B pre/postemergence cocklebur; assay type: in vivo, Xanthium strumarium; conditions: for Cocklebur plant response rating: scale of 0 to 10 where 0 is no effect and 10 is complete control
Procedure, shortened: (§1)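 Herbicidal effect was estimated by eye on a ten-point control scale after plants spent twelve to sixteen days in a greenhouse following soil or foliar treatment. Foliar sprays targeted plants at one to four leaves; all doses were formulated in a non-phytotoxic solvent with surfactant.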

[2] = test system: pigweed; experiment: Test B pre/postemergence pigweed; assay type: in vivo, Amaranthus retroflexus; conditions: for Redroot pigweed plant response rating: scale of 0 to 10 where 0 is no effect and 10 is complete control
Procedure, shortened: as §1

[3] = test system: sugar beet; experiment: Test B pre/postemergence sugar beet; assay type: in vivo, Beta vulgaris; conditions: for Sugarbeets plant response rating: scale of 0 to 10 where 0 is no effect and 10 is complete control
Procedure, shortened: as §1

[4] = test system: bamyardgrass; experiment: Test B flood test barnyardgrass; assay type: in vivo, Echinochloa crus-galli; conditions: for Plant response rating, Barnyardgrass (0 to 10 scale, 0 is no effect, 10 is complete control) / Barnyardgrass plant response rating (0 to 10 scale, 0 is no effect, 10 is complete control): visual evaluation after twelve to sixteen days; for Barnyardgrass plant response rating (0 to 10 scale, 0 is no effect, 10 is complete control): under heading Pre-emergence
Procedure, shortened: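 Plants were grown to the 2-leaf stage before treatment with test chemical, then held in a greenhouse for twelve to sixteen days. Injury was visually rated against untreated controls on a 0–10 scale, where 0 is no effect and 10 is complete control.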

[5] = test system: winter wheat; experiment: Test E winter wheat; assay type: in vivo, Triticum aestivum; conditions: Postemergence, 0 to 100 scale, 0 is no effect, 100 is complete control
Procedure, shortened: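 For postemergence, sowings are timed so plants reach the 1- to 4-leaf stage at spraying. Test compound is applied in a surfactant-containing solvent mixture that is non-phytotoxic. Response is judged by eye against untreated controls after approximately 21 to 28 days.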

[6] = test system: blackgrass; experiment: Test E blackgrass; assay type: in vivo, Alopecurus myosuroides; conditions: Preemergence
[7] = test system: green foxtail; experiment: Test E green foxtail; assay type: in vivo, Setaria viridis; conditions: Preemergence
[8] = test system: Italian ryegrass; experiment: Test E Italian ryegrass; assay type: in vivo, Lolium multiflorum; conditions: Preemergence
[9] = test system: winter wheat; experiment: Test E winter wheat; assay type: in vivo, Triticum aestivum; conditions: Preemergence
[10] = test system: wild oat; experiment: Test E wild oat; assay type: in vivo, Avena fatua; conditions: Preemergence
[11] = test system: winter barley; experiment: Test E winter barley; assay type: in vivo, Hordeum vulgare; conditions: Preemergence
[12] = Postemergence, Rate 125 g/ha, scale 0 to 10, 0 is no effect, 10 is complete control
[13] = Postemergence, Rate 250 g/ha, scale 0 to 10, 0 is no effect, 10 is complete control
[14] = Preemergence, Rate 62 g/ha, scale 0 to 10 (0 no effect, 10 complete control)
[15] = Rate 500 g/ha, Postemergence, scale 0 to 10, 0 no effect, 10 complete control
[16] = Rate 62 g/ha, flood test species, Pre-emergence
[17] = Rate 125 g/ha, flood test species
[18] = Rate 250 g/ha, Pre-emergence, flood-test species, scale 0 to 10, 0 is no effect, 10 is complete control
[19] = Rate 500 g/ha, Pre-emergence, flood test species, scale 0 to 10 (0 no effect, 10 complete control)
[20] = Rate 125 g/ha, 0 to 100 scale (0 no effect, 100 complete control)
[21] = Rate 500 g/ha, 0 to 100 scale (0 no effect, 100 complete control)

For `CC1CC1n1c(=O)on(C(=O)N(c2ccc(F)cc2F)C(C)C)c1=O` (centres unmarked) [Compound 372], the “Plant response rating, Cocklebur” value [1, 12] was 0, the “Plant response rating, Cocklebur” value [1, 13] was 0 and the “Plant response rating, Cocklebur” value [1, 14] was 0. For the same compound, the “Cocklebur plant response rating (0 to 10 scale)” value ([1]; Preemergence, Rate 125 g/ha) was 0, the “Cocklebur plant response rating” value ([1]; Preemergence, Rate 250 g/ha) was 2 and the “Cocklebur plant response rating” value ([1]; Preemergence, Rate 500 g/ha) was 2. The “Cocklebur plant response rating” value ([1]; Rate 62 g/ha, Postemergence) was 0, the “Plant response rating, Cocklebur” value [1, 15] was 3 and the “Plant response rating, Redroot pigweed” value [2, 12] was 3. The “Plant response rating, Redroot pigweed” value [2, 13] was 6, the “Plant response rating, Redroot pigweed” value [2, 14] was 6 and the “Redroot pigweed plant response rating (0 to 10 scale)” value ([2]; Preemergence, Rate 125 g/ha) was 10. For the same compound, the “Redroot pigweed plant response rating” value ([2]; Preemergence, Rate 250 g/ha) was 10, the “Redroot pigweed plant response rating” value ([2]; Preemergence, Rate 500 g/ha) was 10 and the “Redroot pigweed plant response rating” value ([2]; Rate 62 g/ha, Postemergence) was 2. For the same compound, the “Plant response rating, Redroot pigweed” value [2, 15] was 9, the “Plant response rating, Sugarbeets” value [3, 12] was 2 and the “Plant response rating, Sugarbeets” value [3, 13] was 2. For the same compound, the “Plant response rating, Sugarbeets” value [3, 14] was 2, the “Sugarbeets plant response rating (0 to 10 scale)” value ([3]; Preemergence, Rate 125 g/ha) was 4 and the “Sugarbeets plant response rating” value ([3]; Preemergence, Rate 250 g/ha) was 10. The “Sugarbeets plant response rating” value ([3]; Preemergence, Rate 500 g/ha) was 10, the “Sugarbeets plant response rating” value ([3]; Rate 62 g/ha, Postemergence) was 0 and the “Plant response rating, Sugarbeets” value [3, 15] was 8. For the same compound, the “Plant response rating, Barnyardgrass” value ([4]; Postemergence (flood test), Rate 125 g/ha, scale 0 to 10, 0 is no effect, 10 is complete control) was 0, the “Barnyardgrass plant response rating” value ([4]; Rate 62 g/ha, Postemergence (flood test species), scale of 0 to 10 where 0 is no effect and 10 is complete control) was 0 and the “Plant response rating, Barnyardgrass (0 to 10 scale, 0 is no effect, 10 is complete control)” value [4, 16] was 0. The “Barnyardgrass plant response rating (0 to 10 scale, 0 is no effect, 10 is complete control)” value [4, 17] was 0, the “Barnyardgrass plant response rating” value [4, 18] was 0 and the “Plant response rating, Barnyardgrass” value ([4]; Rate 500 g/ha, listed under Postemergence (flood test species), scale 0 to 10, 0 no effect, 10 complete control) was 6. For the same compound, the “Barnyardgrass plant response rating” value [4, 19] was 0, the “Plant response rating, Barnyardgrass” value ([4]; flood test species, listed under Postemergence, Rate 250 g/ha, scale 0 to 10, 0 is no effect, 10 is complete control) was 4 and the “Plant response rating, Wheat (winter)” value ([5]; Rate 125 g/ha) was 65. For the same compound, the “Plant response rating, Wheat (winter)” value ([5]; Rate 250 g/ha) was 70, the “Plant response rating, Wheat (winter)” value ([5]; Rate 500 g/ha) was 80 and the “Plant response rating, Blackgrass” value [6, 20] was 70. For the same compound, the “Plant response rating, Blackgrass” value ([6]; Rate 250 g/ha, 0 to 100 scale) was 60, the “Plant response rating, Blackgrass” value [6, 21] was 100 and the “Plant response rating, Green foxtail” value [7, 20] was 60. The “Plant response rating, Green foxtail” value ([7]; Rate 250 g/ha, 0 to 100 scale) was 60, the “Plant response rating, Green foxtail” value [7, 21] was 100 and the “Plant response rating, I. Ryegrass” value [8, 20] was 60. For the same compound, the “Plant response rating, I. Ryegrass” value ([8]; Rate 250 g/ha, 0 to 100 scale) was 70, the “Plant response rating, I. Ryegrass” value [8, 21] was 85 and the “Plant response rating, Wheat (winter)” value [9, 20] was 60. For the same compound, the “Plant response rating, Wheat (winter)” value ([9]; Rate 250 g/ha, 0 to 100 scale) was 50, the “Plant response rating, Wheat (winter)” value [9, 21] was 70 and the “Plant response rating, Wild oat” value [10, 20] was 50. The “Plant response rating, Wild oat” value ([10]; Rate 250 g/ha, 0 to 100 scale) was 60, the “Plant response rating, Wild oat” value [10, 21] was 80 and the “Plant response rating, Barley (winter)” value [11, 20] was 60. For the same compound, the “Plant response rating, Barley (winter)” value ([11]; Rate 250 g/ha, 0 to 100 scale, 0 no effect, 100 complete control) was 70 and the “Plant response rating, Barley (winter)” value [11, 21] was 70.

For `CC(C)N(C(=O)n1oc(=O)n(CC2CCOC2)c1=O)c1ccc(F)cc1` (centres unmarked) [Compound 375], the “Plant response rating, Cocklebur” value [1, 12] was 0, the “Plant response rating, Cocklebur” value [1, 13] was 0 and the “Plant response rating, Cocklebur” value [1, 14] was 0. The “Cocklebur plant response rating (0 to 10 scale)” value ([1]; Preemergence, Rate 125 g/ha) was 0, the “Cocklebur plant response rating” value ([1]; Preemergence, Rate 250 g/ha) was 0 and the “Cocklebur plant response rating” value ([1]; Preemergence, Rate 500 g/ha) was 0. For the same compound, the “Cocklebur plant response rating” value ([1]; Rate 62 g/ha, Postemergence) was 0, the “Plant response rating, Cocklebur” value [1, 15] was 0 and the “Plant response rating, Redroot pigweed” value [2, 12] was 0. The “Plant response rating, Redroot pigweed” value [2, 13] was 0, the “Plant response rating, Redroot pigweed” value [2, 14] was 10 and the “Redroot pigweed plant response rating (0 to 10 scale)” value ([2]; Preemergence, Rate 125 g/ha) was 10. For the same compound, the “Redroot pigweed plant response rating” value ([2]; Preemergence, Rate 250 g/ha) was 10, the “Redroot pigweed plant response rating” value ([2]; Preemergence, Rate 500 g/ha) was 10 and the “Redroot pigweed plant response rating” value ([2]; Rate 62 g/ha, Postemergence) was 0. The “Plant response rating, Redroot pigweed” value [2, 15] was 3, the “Plant response rating, Sugarbeets” value [3, 12] was 0 and the “Plant response rating, Sugarbeets” value [3, 13] was 0. The “Plant response rating, Sugarbeets” value [3, 14] was 0, the “Sugarbeets plant response rating (0 to 10 scale)” value ([3]; Preemergence, Rate 125 g/ha) was 2 and the “Sugarbeets plant response rating” value ([3]; Preemergence, Rate 250 g/ha) was 4. The “Sugarbeets plant response rating” value ([3]; Preemergence, Rate 500 g/ha) was 7, the “Sugarbeets plant response rating” value ([3]; Rate 62 g/ha, Postemergence) was 0 and the “Plant response rating, Sugarbeets” value [3, 15] was 3. The “Plant response rating, Barnyardgrass (0 to 10 scale, 0 is no effect, 10 is complete control)” value [4, 16] was 0, the “Barnyardgrass plant response rating (0 to 10 scale, 0 is no effect, 10 is complete control)” value [4, 17] was 0 and the “Barnyardgrass plant response rating” value [4, 18] was 0. For the same compound, the “Barnyardgrass plant response rating” value [4, 19] was 0, the “Plant response rating, Wheat (winter)” value ([5]; Rate 125 g/ha) was 35 and the “Plant response rating, Wheat (winter)” value ([5]; Rate 250 g/ha) was 35. For the same compound, the “Plant response rating, Wheat (winter)” value ([5]; Rate 500 g/ha) was 50, the “Plant response rating, Blackgrass” value [6, 20] was 20 and the “Plant response rating, Blackgrass” value ([6]; Rate 250 g/ha, 0 to 100 scale) was 60. For the same compound, the “Plant response rating, Blackgrass” value [6, 21] was 65, the “Plant response rating, Green foxtail” value [7, 20] was 50 and the “Plant response rating, Green foxtail” value ([7]; Rate 250 g/ha, 0 to 100 scale) was 60. For the same compound, the “Plant response rating, Green foxtail” value [7, 21] was 70, the “Plant response rating, I. Ryegrass” value [8, 20] was 50 and the “Plant response rating, I. Ryegrass” value ([8]; Rate 250 g/ha, 0 to 100 scale) was 70. For the same compound, the “Plant response rating, I. Ryegrass” value [8, 21] was 65, the “Plant response rating, Wheat (winter)” value [9, 20] was 30 and the “Plant response rating, Wheat (winter)” value ([9]; Rate 250 g/ha, 0 to 100 scale) was 40. The “Plant response rating, Wheat (winter)” value [9, 21] was 50, the “Plant response rating, Wild oat” value [10, 20] was 55 and the “Plant response rating, Wild oat” value ([10]; Rate 250 g/ha, 0 to 100 scale) was 60. For the same compound, the “Plant response rating, Wild oat” value [10, 21] was 70, the “Plant response rating, Barley (winter)” value [11, 20] was 35 and the “Plant response rating, Barley (winter)” value [11, 21] was 30.

From US6737383B1, “Herbicidal oxadiazolidines” (priority 1999, dated 2004)
